Consider two compounds from PMC4459817, “Vasculotide reduces endothelial permeability and tumor cell extravasation in the absence of binding to or agonistic activation of Tie2” (EMBO Molecular Medicine, 2015).

Assay [1] concerns LM2-4luc experimental metastasis. To be noted: SU prior to IV inoculation of LM2-4luc; ref Ebos et al, 2009; cited from earlier work. An excerpt: Here, we tested whether concurrent VT therapy can be used to reverse this pro-metastatic potential of SU in the same model. LM2-4^luc is a metastatically aggressive luciferase-tagged derivative of the MDA-MB-231 cell line that was derived through serial in vivo selection ...

For another assay, the target named is T1, mouse Tie2-Fc (mTie2-Fc) (Mus musculus, UniProt Q02858).
T1 construct: Purified human or mouse Tie2-Fc (i.e., Fc-conjugated extracellular domains of Tie2); purchased R&D Systems 762-T2-100
T1 sequence (Q02858 23-746 limits assumed): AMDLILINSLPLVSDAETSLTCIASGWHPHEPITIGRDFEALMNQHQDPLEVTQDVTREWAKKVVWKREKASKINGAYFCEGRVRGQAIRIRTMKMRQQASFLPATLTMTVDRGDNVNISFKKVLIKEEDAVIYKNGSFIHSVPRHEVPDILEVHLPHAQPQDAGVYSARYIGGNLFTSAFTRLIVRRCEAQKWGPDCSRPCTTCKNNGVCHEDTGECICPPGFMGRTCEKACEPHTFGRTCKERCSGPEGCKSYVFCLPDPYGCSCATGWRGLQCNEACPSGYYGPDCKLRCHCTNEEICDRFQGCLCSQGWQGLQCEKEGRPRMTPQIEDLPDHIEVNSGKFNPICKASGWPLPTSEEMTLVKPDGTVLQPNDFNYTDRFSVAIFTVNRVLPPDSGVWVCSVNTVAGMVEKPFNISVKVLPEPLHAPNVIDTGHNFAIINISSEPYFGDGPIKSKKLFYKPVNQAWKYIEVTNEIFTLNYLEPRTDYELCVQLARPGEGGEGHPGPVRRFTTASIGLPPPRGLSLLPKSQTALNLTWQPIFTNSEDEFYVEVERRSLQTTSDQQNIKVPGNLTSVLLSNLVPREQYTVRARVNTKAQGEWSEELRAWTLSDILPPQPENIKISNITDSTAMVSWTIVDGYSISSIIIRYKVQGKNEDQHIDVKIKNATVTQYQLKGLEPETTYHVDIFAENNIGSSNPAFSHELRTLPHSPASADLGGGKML
The assay is described as follows: SPR binding to mouse Tie2-Fc. Particulars: mouse Tie2-Fc (low- and high-density), 37°C, pH 7.4, Supplementary Fig S3, listed as VT. The source says:
To better understand the difficulties we had in observing Tie2 activation by VT, we sought to characterize the binding affinity and kinetics of VT to Tie2. Purified human or mouse Tie2-Fc (i.e., Fc-conjugated extracellular domains of Tie2) were first coupled to protein A sepharose beads for pull-down experiments (Fig9A and B) or immobilized on a Biacore CM5 sensor chip for surface plasmon resonance (SPR) experiments (Fig9C and Supplementary Fig S3). […]
9. Tie2 Receptor-Binding Assays
Vasculotide (VT) was manufactured by Bachem UK Ltd. T7c (CHHHRHSF) was synthesized by Genscript (Piscataway, NJ, USA). PEG-Cys consists of a single cysteine reacted to each of the 4 arms of PEG-maleimide (Sunbright PTE-100MA, NOF Corporation, Tokyo, Japan). BowAng1 (Ang1-Fd-Fc-Fd) was made and provided by Regeneron Pharmaceuticals, Inc. (Tarrytown, NY, USA). COMP-Ang1 was purified in the Kerbel lab from serum-free culture media conditioned by an engineered CHO cell line provided by Dr. Gou Young Koh (KAIST), according to published protocols (Hwang et al, 2008).
Recombinant human Angiopoietin-1 (rhAng1) and Vascular Endothelial Growth Factor ( rhVEGF) were […]
purchased from R&D Systems. […]
(structural/molecular weight control for VT), and 40 μL of supernatant (7% of residual/unbound ligand) – were similarly boiled in SDS sample buffer. […]
Binding analysis were performed by exposure of immobilized mTie2-Fc to the analytes diluted in HBS-EP (0.01M HEPES pH 7.4, 0.15M NaCl, 3mM EDTA, 0.005% v/v Tween-20), which was supplemented with 1mg/mL carboxymethyl dextran (NSB reducer, GE Healthcare) to reduce non-specific binding to the sensor chip. […] To quantitatively determine the kinetic properties of the interaction (KD, kd, ka) and avoid mass transport limitations, mTie2-Fc and hTie2-Fc were immobilized at low density (1,000-1,200RU) onto separate flow cells of the CM5 chip using amine coupling chemistry. […] All data were analysed using BIA Evaluation Software 2.0 (GE Healthcare) to calculate kd, ka and KD using the 1:1 ligand binding model. […]

The subject of a further assay is Tie2. To be noted: PEGylated VT, earlier reports; ref not printed at the statement; cited from earlier work. The source says: (§1) For therapeutic use, recombinant variants or mimetics of multimeric Ang1 have been engineered, including Ang1* and Ang-F1-Fc-F1/Bow-Ang1 (Davis et al, [2003]; Daly et al, [2013]), MAT-Ang1 and COMP-Ang1 (Cho et al, [2004]; Koh, [2013]). […] The development of VT was inspired by a 2004 paper, where several heptapeptides—with no sequence homology to Ang1—were identified to have Tie2-binding potential through an ...

Assay [2] has as its system in vivo model of abdominal sepsis. To be noted: ref Kumpers et al, 2011; cited from earlier work.
Excerpt: as §1

The subject of assay [3] is lung vascular hyperpermeability in endotoxemic mice. To be noted: ref David et al, 2011; cited from earlier work.
Excerpt: as §1

Assay [4] deals with mouse model of skin toxicity from cancer radiotherapy. To be noted: ref Korpela et al, 2014; cited from earlier work.
Excerpt: as §1

Regarding `CCN(CC)CCNC(=O)c1c(C)[nH]c(/C=C2\C(=O)Nc3ccc(F)cc32)c1C` [sunitinib, reference compound], in assay [1], the “experimental metastasis, especially in the lungs” value is given as “promotion of experimental metastasis, especially in the lungs”.

In the case of “CHHHRHSF [Vasculotide, 4-armed maleimide-functionalized polyethylene glycol (PEG) backbone to link together four cysteine-capped T7 peptides, that is, CHHHRHSF]”, the “binding to Tie2-Fc” value at mouse Tie2-Fc (mTie2-Fc) is “no binding to Tie2-Fc was detectable”. Besides, the Tie2 phosphorylation result in the assay on Tie2 was “reportedly activates Tie2 phosphorylation”. The intraperitoneal leukocyte influx entry in assay [2] is “reduced intraperitoneal leukocyte influx”. Besides, the “inflammatory induction of lung vascular hyperpermeability” value in assay [3] is “prevented inflammatory induction of lung vascular hyperpermeability”. The wound healing result in assay [4] is given as “promoted wound healing”.
